US9340554B2, “IRAK inhibitors and uses thereof” (Nimbus Iris, Inc., priority 2011, dated 2016)

Target: T1, IRAK4 (Homo sapiens, UniProt Q9NWZ3)
T1 construct: purchased CARNA Bioscience 09-145
T1 sequence (Q9NWZ3 1-460): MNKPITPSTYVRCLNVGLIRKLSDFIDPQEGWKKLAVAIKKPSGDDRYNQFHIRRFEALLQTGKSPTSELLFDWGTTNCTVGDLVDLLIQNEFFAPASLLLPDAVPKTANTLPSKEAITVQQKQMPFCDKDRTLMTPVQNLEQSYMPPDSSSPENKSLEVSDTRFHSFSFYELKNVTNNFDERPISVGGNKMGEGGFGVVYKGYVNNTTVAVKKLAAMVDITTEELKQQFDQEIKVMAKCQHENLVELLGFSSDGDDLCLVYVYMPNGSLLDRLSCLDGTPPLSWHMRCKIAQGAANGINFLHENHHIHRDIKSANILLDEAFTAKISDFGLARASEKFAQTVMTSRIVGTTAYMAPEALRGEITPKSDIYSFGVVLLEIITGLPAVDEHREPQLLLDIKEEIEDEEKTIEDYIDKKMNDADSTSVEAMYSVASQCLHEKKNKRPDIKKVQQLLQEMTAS
Assay: IRAK-4 activity inhibition assay (Caliper, Peptide 8, 37 μM ATP)
Assay type: biochemical
Conditions: 3.5 nM IRAK4, 1.5 μM Peptide 8, 37 μM ATP, 28° C. 40 minutes; read-out: IRAK-4 activity inhibition IC50
Method: A 1× kinase base buffer was prepared from 50 mM HEPES, pH 7.5 and 0.0015% Brij-35. A stop buffer was prepared from 100 mM HEPES, pH 7.5, 0.015% Brij-35, 0.2% Coating Reagent #3, and 50 mM EDTA.
Test compound was diluted to 50× of the final desired highest inhibitor concentration in reaction by 100% DMSO. 100 ul of this compound dilution was transferred to a well in a 96-well plate.
Test compound was serially diluted by transferring 30 μl to 60 μl of 100% DMSO in the next well and so forth for a total of 10 concentrations. 100 μl of 100% DMSO was added to two empty wells for no compound control and no enzyme control in the same 96-well plate.
A new 96-well plate was marked as intermediate plate. 5 μl of compound serial dilution was transferred from source plate to the corresponding wells of the intermediate plate. 45 μl of 1× kinase base buffer (KB buffer) was added to each well of the intermediate plate. The intermediate plate was placed for 10 min on a shaker.
5 μl of each well was transferred from the 96-well intermediate plate to a 384-well plate in duplicates. […] A2 of the 96-well plate is transferred to A3 and A4 of the 384-well plate, and so on.
IRAK4 and DTT in 1× kinase base buffer was added.
Assay plate already contained 5 μl of compound in 10% DMSO. Added 10 μl of 2.5× enzyme solution to each well of the 384-well assay plate, except no enzyme control wells. […] Added 10 μl of 1× kinase base buffer to no enzyme control wells in the assay plate. Incubated at room temperature for 10 min.
Added 10 μl of 2.5× peptide solution to each well of the 384-well assay plate. […] Incubated at 28° C. for 40 minutes. Added 25 μl of stop buffer to stop reaction. Collected data on Caliper.
Copied conversion % data from Caliper program. Converted conversion % values to percent inhibition values. Percent inhibition=(max−conversion %)/(max−min)*100, where “max” means the conversion % of DMSO control and “min” means the conversion % of no enzyme control.
The compound numbers correspond to the compound numbers in Table 1. […] “NA” stands for “not assayed.”

| SMILES | IC50 |
| --- | --- |
| CN(CCC(=O)O)[C@H]1CC[C@H](Nc2ncnc3sc4c(c23)CCC4)CC1 [Compound I-108, 3-[methyl[4-([7-thia-9,11-diazatricyclo[6.4.0.0^[2,6]]dodeca-1(8),2(6),9,11-tetraen-12-yl]amino)cyclohexyl]amino]propanoic acid] | < 5 µM |
| CN(CCC(N)=O)[C@H]1CC[C@H](Nc2ncnc3sc4c(c23)CCC4)CC1 [Compound I-109, 3-[methyl[4-([7-thia-9,11-diazatricyclo[6.4.0.0^[2,6]]dodeca-1(8),2(6),9,11-tetraen-12-yl]amino)cyclohexyl]amino]propanamide] | < 5 µM |
| CN(Cc1c[nH]c2ccccc12)[C@H]1CC[C@H](Nc2ncnc3sc4c(c23)CCC4)CC1 [Compound I-110] | < 5 µM |
| CN(Cc1ccncc1F)[C@H]1CC[C@H](Nc2ncnc3sc4c(c23)CCC4)CC1 [Compound I-111, 1-N-[(3-fluoropyridin-4-yl)methyl]-1-N-methyl-4-N-[7-thia-9,11-diazatricyclo[6.4.0.0^[2,6]]dodeca-1(12),2(6),8,10-tetraen-12-yl]cyclohexane-1,4-diamine] | < 5 µM |
| CNC1CCCC(Oc2ncnc3sc4c(c23)CCC4)CC1 (stereo not shown) [Compound I-113, N-methyl-4-[7-thia-9,11-diazatricyclo[6.4.0.0^[2,6]]dodeca-1(12),2(6),8,10-tetraen-12-yloxy]cycloheptan-1-amine] | 5 to 20 µM |
| CCN(Cc1ccccc1)[C@H]1CC[C@H](Oc2ncnc3sc4c(c23)CCC4)CC1 [Compound I-117, (1r,4r)-N-benzyl-4-((6,7-dihydro-5H-cyclopenta[4,5]thieno[2,3-d]pyrimidin-4-yl)oxy)-N-ethylcyclohexanamine] | < 5 µM |
| CN(CC(N)=O)[C@H]1CC[C@H](Nc2ncnc3sc4c(c23)CCC4)CC1 [Compound I-122, 2-(((1r,4r)-4-((6,7-dihydro-5H-cyclopenta[4,5]thieno[2,3-d]pyrimidin-4-yl)amino)cyclohexyl)(methyl)amino)acetamide] | < 5 µM |
| CC(C)NC(=O)CN(C)[C@H]1CC[C@H](Nc2ncnc3sc4c(c23)CCC4)CC1 [Compound I-125, 2-(((1r,4r)-4-((6,7-dihydro-5H-cyclopenta[4,5]thieno[2,3-d]pyrimidin-4-yl)amino)cyclohexyl)(methyl)amino)-N-isopropylacetamide] | < 5 µM |
| CN(CC(=O)Nc1cccnc1)[C@H]1CC[C@H](Nc2ncnc3sc4c(c23)CCC4)CC1 [Compound I-126, 2-(((1r,4r)-4-((6,7-dihydro-5H-cyclopenta[4,5]thieno[2,3-d]pyrimidin-4-yl)amino)cyclohexyl)(methyl)amino)-N-(pyridin-3-yl)acetamide] | < 5 µM |
| CC(C)CN(C)[C@H]1CC[C@H](Nc2ncnc3sc4c(c23)CCC4)CC1 [Compound I-127, 1-N-methyl-1-N-(2-methylpropyl)-4-N-[7-thia-9,11-diazatricyclo[6.4.0.0[2,6]]dodeca-1(8),2(6),9,11-tetraen-12-yl]cyclohexane-1,4-diamine] | < 5 µM |
| C[N+](C)([O-])[C@H]1CC[C@H](Nc2ncnc3sc4c(c23)CCC4)CC1 [Compound I-128, N-[4-(dimethylnitroso)cyclohexyl]-7-thia-9,11-diazatricyclo[6.4.0.0[2,6]]dodeca-1(8),2(6),9,11-tetraen-12-amine] | 20 to 50 µM |
| CN(CC(=O)N1CCCCC1)[C@H]1CC[C@H](Nc2ncnc3sc4c(c23)CCC4)CC1 [Compound I-129, 2-[methyl[4-([7-thia-9,11-diazatricyclo[6.4.0.0[2,6]]dodeca-1(12),2(6),8,10-tetraen-12-yl]amino)cyclohexyl]amino]-1-(piperidin-1-yl)ethan-1-one] | < 5 µM |
| CN(CC(=O)N1CCOCC1)[C@H]1CC[C@H](Nc2ncnc3sc4c(c23)CCC4)CC1 [Compound I-130, 2-[methyl[4-([7-thia-9,11-diazatricyclo[6.4.0.0[2,6]]dodeca-1(12),2(6),8,10-tetraen-12-yl]amino)cyclohexyl]amino]-1-(morpholin-4-yl)ethan-1-one] | < 5 µM |
| CN(C)C(=O)CN(C)[C@H]1CC[C@H](Nc2ncnc3sc4c(c23)CCC4)CC1 [Compound I-131, N,N-dimethyl-2-[methyl[4-([7-thia-9,11-diazatricyclo[6.4.0.0[2,6]]dodeca-1(12),2(6),8,10-tetraen-12-yl]amino)cyclohexyl]amino]acetamide] | < 5 µM |

Results, then the molecule that gave them:

| IC50 | SMILES |
| --- | --- |
| < 5 µM | CN(CCc1ccccn1)[C@H]1CC[C@H](Nc2ncnc3sc4c(c23)CCC4)CC1 [Compound I-106, 1-N-methyl-1-N-[2-(pyridin-2-yl)ethyl]-4-N-[7-thia-9,11-diazatricyclo[6.4.0.0^[2,6]]dodeca-1(8),2(6),9,11-tetraen-12-yl]cyclohexane-1,4-diamine] |
| < 5 µM | CN(CCc1cccc(Cl)c1)[C@H]1CC[C@H](Nc2ncnc3sc4c(c23)CCC4)CC1 [Compound I-107, 1-N-[2-(3-chlorophenyl)ethyl]-1-N-methyl-4-N-[7-thia-9,11-diazatricyclo[6.4.0.0^[2,6]]dodeca-1(8),2(6),9,11-tetraen-12-yl]cyclohexane-1,4-diamine] |
| < 5 µM | CN(CCc1ccccc1Cl)[C@H]1CC[C@H](Nc2ncnc3sc4c(c23)CCC4)CC1 [Compound I-112, 1-N-[2-(2-chlorophenyl)ethyl]-1-N-methyl-4-N-[7-thia-9,11-diazatricyclo[6.4.0.0^[2,6]]dodeca-1(12),2(6),8,10-tetraen-12-yl]cyclohexane-1,4-diamine] |
| < 5 µM | CN(CC(=O)Nc1ccccc1)[C@H]1CC[C@H](Nc2ncnc3sc4c(c23)CCC4)CC1 [Compound I-114, 2-[methyl[4-([7-thia-9,11-diazatricyclo[6.4.0.0^[2,6]]dodeca-1(8),2(6),9,11-tetraen-12-yl]amino)cyclohexyl]amino]-N-phenylacetamide] |
| < 5 µM | c1ccc(CCN[C@H]2CC[C@H](Nc3ncnc4sc5c(c34)CCC5)CC2)cc1 [Compound I-115, 1-N-(2-phenylethyl)-4-N-[7-thia-9,11-diazatricyclo[6.4.0.0^[2,6]]dodeca-1(12),2(6),8,10-tetraen-12-yl]cyclohexane-1,4-diamine] |
| < 5 µM | CN(CCCc1ccccc1)[C@H]1CC[C@H](Oc2ncnc3sc4c(c23)CCC4)CC1 [Compound I-116, N-methyl-N-(3-phenylpropyl)-4-[7-thia-9,11-diazatricyclo[6.4.0.0^[2,6]]dodeca-1(8),2(6),9,11-tetraen-12-yloxy]cyclohexan-1-amine] |
| < 5 µM | CN(CCCc1ccccc1)[C@H]1CC[C@H](Nc2ncnc3sc4c(c23)CCC4)CC1 [Compound I-118] |
| < 5 µM | c1ccc(CCCN[C@H]2CC[C@H](Nc3ncnc4sc5c(c34)CCC5)CC2)cc1 [Compound I-119, (1r,4r)-N1-(6,7-dihydro-5H-cyclopenta[4,5]thieno[2,3-d]pyrimidin-4-yl)-N4-(3-phenylpropyl)cyclohexane-1,4-diamine] |
| < 5 µM | CCN(Cc1ccccc1)[C@H]1CC[C@H](Nc2ncnc3sc4c(c23)CCC4)CC1 [Compound I-120, 1-N-benzyl-1-N-ethyl-4-N-[7-thia-9,11-diazatricyclo[6.4.0.0[2,6]]dodeca-1(8),2(6),9,11-tetraen-12-yl]cyclohexane-1,4-diamine] |
| < 5 µM | CN(CCc1ccccc1)[C@H]1CC[C@H](Oc2ncnc3sc4c(c23)CCC4)CC1 [Compound I-121, N-methyl-N-(2-phenylethyl)-4-[7-thia-9,11-diazatricyclo[6.4.0.0[2,6]]dodeca-1(8),2(6),9,11-tetraen-12-yloxy]cyclohexan-1-amine] |
| < 5 µM | CN(CC(=O)NCc1ccccc1)[C@H]1CC[C@H](Nc2ncnc3sc4c(c23)CCC4)CC1 [Compound I-123, N-benzyl-2-(((1r,4r)-4-((6,7-dihydro-5H-cyclopenta[4,5]thieno[2,3-d]pyrimidin-4-yl)amino)cyclohexyl)(methyl)amino)acetamide] |
